Results reported in publication PMC7617869, “Molecular glues that inhibit deubiquitylase activity and inflammatory signaling” (Nature Structural & Molecular Biology, 2025).
Values joined by “and” are separate entries in the source; they are usually repeats but may differ in a detail not shown here. Identical values can stand only once.

How the values were obtained:
Assay in all cases: DUB selectivity profiling (DUBprofiler, ubiquitin–rhodamine(110)–glycine)
Assay type in all cases: biochemical
[1] = molecular target: T1, panel of 48 purified DUBs (Homo sapiens, UniProt Q86UV5); settings: DUB USP48; screening concentration 5 μM; 5 µM
T1 construct: purchased Ubiquigent (DUBprofiler service)
Protocol: (§1) Biochemical selectivity profiling (DUBprofiler) was performed by Ubiquigent with a panel of 48 purified DUBs and ubiquitin–rhodamine(110)–glycine as a fluorescent substrate.

[2] = molecular target: T2, panel of 48 purified DUBs (Homo sapiens, UniProt Q5VV17); settings: DUB OTUD1; screening concentration 5 μM; 5 µM
T2 construct: purchased Ubiquigent (DUBprofiler service)
Protocol: as §1

[3] = system: panel of 48 purified DUBs; settings: single dose 5 μM, including AMSH-LP
Protocol: as §1

[4] = molecular target: T3, panel of 48 purified DUBs (Homo sapiens, UniProt Q9Y5T5); settings: DUB USP16; screening concentration 5 μM; 5 µM
T3 construct: purchased Ubiquigent (DUBprofiler service)
Protocol: as §1

[5] = molecular target: T4, panel of 48 purified DUBs (Homo sapiens, UniProt Q8NB14); settings: DUB USP38; screening concentration 5 μM; 5 µM
T4 construct: purchased Ubiquigent (DUBprofiler service)
Protocol: as §1

[6] = molecular target: T5, panel of 48 purified DUBs (Homo sapiens, UniProt O94782); settings: DUB USP1/UAF1; screening concentration 5 μM; 5 µM
T5 construct: purchased Ubiquigent (DUBprofiler service)
Protocol: as §1

[7] = molecular target: T6, panel of 48 purified DUBs (Homo sapiens, UniProt Q14694); settings: DUB USP10; screening concentration 5 μM; 5 µM
T6 construct: purchased Ubiquigent (DUBprofiler service)
Protocol: as §1

[8] = molecular target: T7, panel of 48 purified DUBs (Homo sapiens, UniProt Q9H3M9); settings: DUB Ataxin3L; screening concentration 5 μM; 5 µM
T7 construct: purchased Ubiquigent (DUBprofiler service)
Protocol: as §1

[9] = molecular target: T8, panel of 48 purified DUBs (Homo sapiens, UniProt Q5VVQ6); settings: DUB OTU1; screening concentration 5 μM
T8 construct: purchased Ubiquigent (DUBprofiler service)
Protocol: as §1

[10] = molecular target: T9, panel of 48 purified DUBs (Homo sapiens, UniProt Q92560); settings: DUB BAP1; screening concentration 5 μM; 5 µM
T9 construct: purchased Ubiquigent (DUBprofiler service)
Protocol: as §1

[11] = molecular target: T10, panel of 48 purified DUBs (Homo sapiens, UniProt A6NNY8); settings: DUB USP27X; screening concentration 5 μM; 5 µM
T10 construct: purchased Ubiquigent (DUBprofiler service)
Protocol: as §1

[12] = molecular target: T11, panel of 48 purified DUBs (Homo sapiens, UniProt Q96JH7); settings: DUB VCPIP; screening concentration 5 μM
T11 construct: purchased Ubiquigent (DUBprofiler service)
Protocol: as §1

[13] = molecular target: T12, panel of 48 purified DUBs (Homo sapiens, UniProt P35125); settings: DUB USP6; screening concentration 5 μM; 5 µM
T12 construct: purchased Ubiquigent (DUBprofiler service)
Protocol: as §1

[14] = molecular target: T13, panel of 48 purified DUBs (Homo sapiens, UniProt P54578); settings: DUB USP14; screening concentration 5 μM; 5 µM
T13 construct: purchased Ubiquigent (DUBprofiler service)
Protocol: as §1

[15] = molecular target: T14, panel of 48 purified DUBs (Homo sapiens, UniProt P15374); settings: DUB UCHL3; screening concentration 5 μM; 5 µM
T14 construct: purchased Ubiquigent (DUBprofiler service)
Protocol: as §1

[16] = molecular target: T15, panel of 48 purified DUBs (Homo sapiens, UniProt Q15040); settings: DUB JOSD1; screening concentration 5 μM
T15 construct: purchased Ubiquigent (DUBprofiler service)
Protocol: as §1

[17] = molecular target: T16, panel of 48 purified DUBs (Homo sapiens, UniProt P40818); settings: DUB USP8; screening concentration 5 μM; 5 µM
T16 construct: purchased Ubiquigent (DUBprofiler service)
Protocol: as §1

[18] = molecular target: T17, panel of 48 purified DUBs (Homo sapiens, UniProt Q9Y4E8); settings: DUB USP15; screening concentration 5 μM; 5 µM
T17 construct: purchased Ubiquigent (DUBprofiler service)
Protocol: as §1

[19] = molecular target: T18, panel of 48 purified DUBs (Homo sapiens, UniProt O75604); settings: DUB USP2; screening concentration 5 μM; 5 µM
T18 construct: purchased Ubiquigent (DUBprofiler service)
Protocol: as §1

[20] = molecular target: T19, panel of 48 purified DUBs (Homo sapiens, UniProt Q9UK80); settings: DUB USP21; screening concentration 5 μM
T19 construct: purchased Ubiquigent (DUBprofiler service)
Protocol: as §1

[21] = molecular target: T20, panel of 48 purified DUBs (Homo sapiens, UniProt Q8TAC2); settings: DUB JOSD2; screening concentration 5 μM; 5 µM
T20 construct: purchased Ubiquigent (DUBprofiler service)
Protocol: as §1

[22] = molecular target: T21, panel of 48 purified DUBs (Homo sapiens, UniProt Q9Y5K5); settings: DUB UCHL5; screening concentration 5 μM; 5 µM
T21 construct: purchased Ubiquigent (DUBprofiler service)
Protocol: as §1

[23] = molecular target: T22, panel of 48 purified DUBs (Homo sapiens, UniProt Q9NQC7); settings: DUB CYLD; screening concentration 5 μM; 5 µM
T22 construct: purchased Ubiquigent (DUBprofiler service)
Protocol: as §1

[24] = molecular target: T23, panel of 48 purified DUBs (Homo sapiens, UniProt O75317); settings: DUB USP12/UAF1/WDR20; screening concentration 5 μM
T23 construct: purchased Ubiquigent (DUBprofiler service)
Protocol: as §1

[25] = molecular target: T24, panel of 48 purified DUBs (Homo sapiens, UniProt P51784); settings: DUB USP11; screening concentration 5 μM; 5 µM
T24 construct: purchased Ubiquigent (DUBprofiler service)
Protocol: as §1

[26] = molecular target: T25, panel of 48 purified DUBs (Homo sapiens, UniProt O94966); settings: DUB USP19; screening concentration 5 μM; 5 µM
T25 construct: purchased Ubiquigent (DUBprofiler service)
Protocol: as §1

[27] = molecular target: T26, panel of 48 purified DUBs (Homo sapiens, UniProt Q9P2H5); settings: DUB USP35; screening concentration 5 μM; 5 µM
T26 construct: purchased Ubiquigent (DUBprofiler service)
Protocol: as §1

[28] = molecular target: T27, panel of 48 purified DUBs (Homo sapiens, UniProt P54252); settings: DUB Ataxin3; screening concentration 5 μM; 5 µM
T27 construct: purchased Ubiquigent (DUBprofiler service)
Protocol: as §1

[29] = molecular target: T28, panel of 48 purified DUBs (Homo sapiens, UniProt Q9P275); settings: DUB USP36; screening concentration 5 μM; 5 µM
T28 construct: purchased Ubiquigent (DUBprofiler service)
Protocol: as §1

T28 sequence (Q9P275 whole entry): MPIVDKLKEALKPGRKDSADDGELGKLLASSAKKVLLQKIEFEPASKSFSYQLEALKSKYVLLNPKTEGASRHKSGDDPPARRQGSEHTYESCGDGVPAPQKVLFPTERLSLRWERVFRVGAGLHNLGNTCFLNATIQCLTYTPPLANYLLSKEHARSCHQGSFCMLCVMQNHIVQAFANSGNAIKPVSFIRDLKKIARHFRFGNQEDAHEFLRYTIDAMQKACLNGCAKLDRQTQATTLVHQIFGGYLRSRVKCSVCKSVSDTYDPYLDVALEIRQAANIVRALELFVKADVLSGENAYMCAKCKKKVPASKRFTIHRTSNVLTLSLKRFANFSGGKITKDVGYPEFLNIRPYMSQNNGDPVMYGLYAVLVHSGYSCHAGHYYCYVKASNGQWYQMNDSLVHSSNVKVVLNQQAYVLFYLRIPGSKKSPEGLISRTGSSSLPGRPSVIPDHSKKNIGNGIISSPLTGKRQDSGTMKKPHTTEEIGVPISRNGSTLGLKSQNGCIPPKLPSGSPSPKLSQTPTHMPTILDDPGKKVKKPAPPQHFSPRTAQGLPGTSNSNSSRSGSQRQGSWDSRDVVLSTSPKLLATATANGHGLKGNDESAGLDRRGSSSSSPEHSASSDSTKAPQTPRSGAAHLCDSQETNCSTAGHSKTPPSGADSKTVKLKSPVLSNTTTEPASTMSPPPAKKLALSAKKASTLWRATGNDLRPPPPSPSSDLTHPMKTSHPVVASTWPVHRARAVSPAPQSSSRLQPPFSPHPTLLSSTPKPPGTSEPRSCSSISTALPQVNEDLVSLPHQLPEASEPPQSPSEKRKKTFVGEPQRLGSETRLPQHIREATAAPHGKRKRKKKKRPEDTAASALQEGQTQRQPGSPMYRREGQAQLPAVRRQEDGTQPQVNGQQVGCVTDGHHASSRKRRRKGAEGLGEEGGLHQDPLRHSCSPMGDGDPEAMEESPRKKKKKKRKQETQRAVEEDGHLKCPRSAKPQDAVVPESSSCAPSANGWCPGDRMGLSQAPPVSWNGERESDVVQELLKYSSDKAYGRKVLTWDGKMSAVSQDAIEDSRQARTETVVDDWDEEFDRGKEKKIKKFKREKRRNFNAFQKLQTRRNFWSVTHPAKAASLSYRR
T6 sequence (Q14694 whole entry): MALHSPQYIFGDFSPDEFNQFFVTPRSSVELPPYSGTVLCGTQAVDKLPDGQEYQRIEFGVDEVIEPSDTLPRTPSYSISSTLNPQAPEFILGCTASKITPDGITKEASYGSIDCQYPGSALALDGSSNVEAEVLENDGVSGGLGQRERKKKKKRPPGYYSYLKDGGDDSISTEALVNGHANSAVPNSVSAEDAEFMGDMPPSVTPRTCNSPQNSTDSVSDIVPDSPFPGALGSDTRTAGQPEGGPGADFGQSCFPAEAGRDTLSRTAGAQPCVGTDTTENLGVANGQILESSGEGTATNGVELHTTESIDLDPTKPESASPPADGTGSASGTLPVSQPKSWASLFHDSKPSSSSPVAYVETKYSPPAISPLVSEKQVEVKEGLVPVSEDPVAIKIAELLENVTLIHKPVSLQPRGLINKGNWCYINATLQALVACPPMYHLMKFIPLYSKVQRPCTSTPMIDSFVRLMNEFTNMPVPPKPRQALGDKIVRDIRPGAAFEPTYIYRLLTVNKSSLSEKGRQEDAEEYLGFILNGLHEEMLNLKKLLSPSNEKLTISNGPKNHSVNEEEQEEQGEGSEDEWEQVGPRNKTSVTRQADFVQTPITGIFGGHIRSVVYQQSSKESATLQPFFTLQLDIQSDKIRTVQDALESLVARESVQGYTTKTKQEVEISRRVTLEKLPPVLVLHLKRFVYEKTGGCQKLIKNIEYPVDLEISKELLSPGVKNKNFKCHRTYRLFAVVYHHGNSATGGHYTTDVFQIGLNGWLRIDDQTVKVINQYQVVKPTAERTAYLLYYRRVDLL
T18 sequence (O75604 whole entry): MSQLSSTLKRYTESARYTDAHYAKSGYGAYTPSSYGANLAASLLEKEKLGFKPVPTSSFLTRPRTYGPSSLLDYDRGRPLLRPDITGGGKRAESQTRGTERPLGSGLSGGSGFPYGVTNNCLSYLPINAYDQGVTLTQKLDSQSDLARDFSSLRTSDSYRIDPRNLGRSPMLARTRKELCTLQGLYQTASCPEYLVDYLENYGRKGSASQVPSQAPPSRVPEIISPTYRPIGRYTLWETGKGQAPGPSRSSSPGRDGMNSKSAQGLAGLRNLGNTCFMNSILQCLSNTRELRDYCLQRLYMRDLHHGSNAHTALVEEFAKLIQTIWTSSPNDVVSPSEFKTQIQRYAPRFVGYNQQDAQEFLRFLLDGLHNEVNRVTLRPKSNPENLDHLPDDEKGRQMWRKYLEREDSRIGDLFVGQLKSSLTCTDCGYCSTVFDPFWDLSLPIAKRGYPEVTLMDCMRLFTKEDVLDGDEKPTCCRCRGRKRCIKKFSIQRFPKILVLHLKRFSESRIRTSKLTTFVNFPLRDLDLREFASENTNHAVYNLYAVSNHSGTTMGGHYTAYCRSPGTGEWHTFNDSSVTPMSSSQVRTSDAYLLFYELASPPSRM
T14 sequence (P15374 whole entry): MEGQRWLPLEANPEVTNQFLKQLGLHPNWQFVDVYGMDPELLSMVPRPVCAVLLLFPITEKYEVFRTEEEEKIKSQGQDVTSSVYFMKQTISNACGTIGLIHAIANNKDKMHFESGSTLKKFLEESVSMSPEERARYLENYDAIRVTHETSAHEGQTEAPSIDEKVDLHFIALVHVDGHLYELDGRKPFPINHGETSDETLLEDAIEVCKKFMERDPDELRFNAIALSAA
T17 sequence (Q9Y4E8 whole entry): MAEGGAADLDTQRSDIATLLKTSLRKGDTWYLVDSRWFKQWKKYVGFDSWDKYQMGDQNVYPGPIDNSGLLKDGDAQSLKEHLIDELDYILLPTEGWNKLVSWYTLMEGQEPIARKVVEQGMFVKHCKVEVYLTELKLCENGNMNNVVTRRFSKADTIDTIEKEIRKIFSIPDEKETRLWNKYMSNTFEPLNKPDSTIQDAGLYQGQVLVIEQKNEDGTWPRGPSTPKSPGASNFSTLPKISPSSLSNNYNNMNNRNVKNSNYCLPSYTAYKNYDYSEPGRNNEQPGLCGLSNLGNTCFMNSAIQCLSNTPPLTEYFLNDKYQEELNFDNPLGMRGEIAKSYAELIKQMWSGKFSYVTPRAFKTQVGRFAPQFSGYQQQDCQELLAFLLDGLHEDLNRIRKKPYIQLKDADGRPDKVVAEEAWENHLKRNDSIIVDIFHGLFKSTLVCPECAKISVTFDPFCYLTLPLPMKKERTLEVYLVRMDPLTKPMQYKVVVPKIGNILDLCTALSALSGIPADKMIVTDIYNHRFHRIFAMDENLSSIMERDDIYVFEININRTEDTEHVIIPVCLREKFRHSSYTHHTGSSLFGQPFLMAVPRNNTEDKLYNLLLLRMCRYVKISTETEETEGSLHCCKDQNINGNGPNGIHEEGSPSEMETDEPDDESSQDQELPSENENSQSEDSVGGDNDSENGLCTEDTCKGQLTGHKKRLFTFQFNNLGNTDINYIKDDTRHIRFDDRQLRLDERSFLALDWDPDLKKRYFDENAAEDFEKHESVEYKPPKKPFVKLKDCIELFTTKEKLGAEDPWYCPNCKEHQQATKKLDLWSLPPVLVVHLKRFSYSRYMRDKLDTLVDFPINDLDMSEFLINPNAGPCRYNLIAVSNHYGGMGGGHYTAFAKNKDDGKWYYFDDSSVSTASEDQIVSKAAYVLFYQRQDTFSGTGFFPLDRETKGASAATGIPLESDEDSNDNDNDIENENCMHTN
T7 sequence (Q9H3M9 whole entry): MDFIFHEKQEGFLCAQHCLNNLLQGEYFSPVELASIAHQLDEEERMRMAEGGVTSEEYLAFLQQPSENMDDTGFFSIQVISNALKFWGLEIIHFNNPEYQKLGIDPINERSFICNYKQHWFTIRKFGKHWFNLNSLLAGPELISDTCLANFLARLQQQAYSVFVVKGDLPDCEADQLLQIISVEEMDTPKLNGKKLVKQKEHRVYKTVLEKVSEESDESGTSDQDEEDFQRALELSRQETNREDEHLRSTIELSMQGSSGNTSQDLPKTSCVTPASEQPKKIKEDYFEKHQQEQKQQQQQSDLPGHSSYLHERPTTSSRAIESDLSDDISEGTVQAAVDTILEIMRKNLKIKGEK
T27 sequence (P54252 whole entry): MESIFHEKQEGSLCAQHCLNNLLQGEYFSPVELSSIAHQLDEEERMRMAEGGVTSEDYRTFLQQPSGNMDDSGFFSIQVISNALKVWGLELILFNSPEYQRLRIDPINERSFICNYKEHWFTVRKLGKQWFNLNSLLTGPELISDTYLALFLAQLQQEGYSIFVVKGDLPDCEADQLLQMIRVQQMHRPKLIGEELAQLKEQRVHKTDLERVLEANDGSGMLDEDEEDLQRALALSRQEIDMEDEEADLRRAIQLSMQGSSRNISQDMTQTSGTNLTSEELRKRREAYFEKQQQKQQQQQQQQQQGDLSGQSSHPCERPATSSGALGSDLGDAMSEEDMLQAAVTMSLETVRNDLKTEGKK
T20 sequence (Q8TAC2 whole entry): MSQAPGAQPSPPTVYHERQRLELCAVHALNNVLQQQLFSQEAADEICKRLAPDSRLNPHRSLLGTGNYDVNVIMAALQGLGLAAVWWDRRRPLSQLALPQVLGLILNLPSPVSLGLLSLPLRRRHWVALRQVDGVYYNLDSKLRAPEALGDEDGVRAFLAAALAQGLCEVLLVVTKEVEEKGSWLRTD
T21 sequence (Q9Y5K5 whole entry): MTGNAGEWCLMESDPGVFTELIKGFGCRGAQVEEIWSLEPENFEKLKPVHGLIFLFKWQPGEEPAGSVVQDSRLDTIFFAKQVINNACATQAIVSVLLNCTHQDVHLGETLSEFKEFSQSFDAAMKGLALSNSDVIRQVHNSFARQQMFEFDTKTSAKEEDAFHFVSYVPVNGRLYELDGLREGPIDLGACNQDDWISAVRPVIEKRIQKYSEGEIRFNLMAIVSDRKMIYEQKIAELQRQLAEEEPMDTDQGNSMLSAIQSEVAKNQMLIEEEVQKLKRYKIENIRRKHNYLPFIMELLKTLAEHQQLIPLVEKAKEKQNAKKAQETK

Activity (% control) [1]: 99 % control and 103 % control | Activity (% control) [2]: 100 % control and 102 % control | Activity (% control) [4]: 79 % control and 78 % control | Activity (% control) [5]: 94 % control and 92 % control | Activity (% control) [6]: 81 % control and 82 % control | Activity (% control) [7]: 95 % control and 102 % control | Activity (% control) [9]: 84 % control | Activity (% control) [10]: 92 % control and 96 % control | Activity (% control) [11]: 102 % control and 97 % control | Activity (% control) [12]: 93 % control | Activity (% control) [13]: 92 % control and 95 % control | Activity (% control) [14]: 85 % control and 95 % control | Activity (% control) [15]: 95 % control and 96 % control | Activity (% control) [16]: 67 % control | Activity (% control) [17]: 88 % control and 84 % control | Activity (% control) [18]: 111 % control and 115 % control | Activity (% control) [19]: 86 % control and 84 % control | Activity (% control) [20]: 93 % control | Activity (% control) [21]: 101 % control and 102 % control | Activity (% control) [22]: 90 % control and 98 % control | Activity (% control) [23]: 104 % control and 112 % control | Activity (% control) [24]: 96 % control | Activity (% control) [25]: 102 % control and 100 % control | Activity (% control) [26]: 100 % control and 99 % control | Activity (% control) [27]: 96 % control and 94 % control | Activity (% control) [29]: 108 % control and 117 % control
SMILES: O=C(NC1CCNCC1)c1nn(C(=O)c2c(Cl)cccc2Cl)cc1NC(=O)c1c(Cl)cccc1Cl [JMS-175-2]
inhibition of a panel of 48 DUBs [3]: did not fully inhibit any of the DUBs | Activity (% control) [8]: 98 % control and 95 % control | Activity (% control) [28]: 87 % control and 85 % control
